Where only a bound is given, the exact number is not on record here.

This experiment deals with T1, Human Glucocorticoid Receptor (Homo sapiens, UniProt P04150).
T1 construct: endogenous in cells; host or cells: cytosol from IM-9 cell line
T1 sequence (P04150 1-777): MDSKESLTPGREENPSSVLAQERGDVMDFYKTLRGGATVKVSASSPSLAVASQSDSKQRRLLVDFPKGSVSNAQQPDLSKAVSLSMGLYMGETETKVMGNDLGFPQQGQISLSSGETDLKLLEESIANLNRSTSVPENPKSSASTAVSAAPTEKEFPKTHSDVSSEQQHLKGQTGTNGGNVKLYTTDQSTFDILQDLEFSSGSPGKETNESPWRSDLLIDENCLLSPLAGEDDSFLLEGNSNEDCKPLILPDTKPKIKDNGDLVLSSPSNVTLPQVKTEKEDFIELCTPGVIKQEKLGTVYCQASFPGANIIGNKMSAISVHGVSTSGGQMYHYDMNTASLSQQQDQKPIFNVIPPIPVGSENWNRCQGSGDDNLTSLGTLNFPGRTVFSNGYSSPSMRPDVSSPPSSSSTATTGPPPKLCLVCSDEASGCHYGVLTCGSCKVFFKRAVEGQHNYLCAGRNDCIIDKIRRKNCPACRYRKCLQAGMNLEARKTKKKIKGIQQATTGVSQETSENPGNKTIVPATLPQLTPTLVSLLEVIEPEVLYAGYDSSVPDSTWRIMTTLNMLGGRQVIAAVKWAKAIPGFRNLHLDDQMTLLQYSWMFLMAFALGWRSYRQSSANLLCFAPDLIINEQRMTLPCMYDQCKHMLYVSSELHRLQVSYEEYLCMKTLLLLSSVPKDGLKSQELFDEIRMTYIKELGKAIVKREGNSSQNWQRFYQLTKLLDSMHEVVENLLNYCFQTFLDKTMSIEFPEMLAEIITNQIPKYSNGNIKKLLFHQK
As to the kind of experiment: Competition Binding in IM-9 Human Glucocorticoid Receptor (GR IM-9). The conditions noted are these: cytosol from IM-9 cell line, 1.5 nM [3H]-Dexamethasone, 4° C. for 6 hours. Here is the method: Competition Binding in IM-9 Human Glucocorticoid Receptor (GR IM-9)
Glucocorticoid receptor competition binding assays were carried out in a polypropilene 96-well plate. In each well was incubated 100 μg of cytosol from IM-9 cell line, 1.5 nM [3H]-Dexamethasone (71 Ci/mmol, 1 mCi/ml, Perkin Elmer NET1192001MC) and compounds studied and standard. Non-specific binding was determined in the presence of Triamcinolone 10 μM (Sigma Aldrich T6376).
The reaction mixture (Vt: 200 μl/well) was incubated at 4° C. for 6 hours, 180 μL was transferred to GF/B 96-well plate (Millipore, Madrid, Spain) pretreated with 0.5% of PEI and treated with binding buffer (TES 10 mM, sodium molybdate 10 mM, EDTA 1 mM, pH 7.4, 2-mercaptoethanol 20 mM, Glycerol 10%) after was filtered and washed six times with 250 μl wash buffer (TES 10 mM, sodium molybdate 10 mM, EDTA 1 mM, pH 7.4, 2-mercaptoethanol 20 mM Glycerol 10%), before measuring in a microplate beta scintillation counter (Microbeta Trilux, PerkinElmer, Madrid, Spain).
As for `COC(=O)C1=C(C(F)(F)F)NC(C)=C(C(C)=O)C1c1csc2c(Br)cccc12` (stereo not drawn) [Example C83, Methyl 5-acetyl-4-(7-bromobenzo[b]thiophen-3-yl)-6-methyl-2-(trifluoromethyl)-1,4-dihydropyridine-3-carboxylate], the half-inhibitory concentration (IC50) (in general, the concentration needed to halve the response being measured) lay within 100 to 1000 nM.
Molecule `CC(=O)C1=C(C)NC(C2CC2)=C(C(=O)OC(C)(C)c2ccccc2)C1c1csc2ncccc12` (stereo not drawn) [Example C92, 2-phenylpropan-2-yl 5-acetyl-2-cyclopropyl-6-methyl-4-(thieno[2,3-b]pyridin-3-yl)-1,4-dihydropyridine-3-carboxylate] came in with an IC50 below 100 nM.
Turning to `CC1=C(C(=O)OCC(F)(F)F)C(c2csc3c(C#N)cccc23)C(C(=O)OCC2CC2)=C(N)N1` (stereo not drawn) [Example D51, 3-(Cyclopropylmethyl) 5-(2,2,2-trifluoroethyl) 2-amino-4-(7-cyanobenzo[b]thiophen-3-yl)-6-methyl-1,4-dihydropyridine-3,5-dicarboxylate], the IC50 was below 100 nM.
The value for `COC(=O)C1=C(C2CC2)NC(C)=C(C(C)=O)C1c1csc2c(-c3ccncc3)cccc12` (stereo not drawn) [Example L13, Methyl 5-acetyl-2-cyclopropyl-6-methyl-4-(7-(pyridin-4-yl)benzo[b]thiophen-3-yl)-1,4-dihydropyridine-3-carboxylate] was 100 to 1000 nM; that for `COC(=O)C1=C(C)NC(N)=C(C(=O)OCC2CC2)C1c1csc2c(C#N)ccnc12` (stereo not drawn) [Example D44, 3-(Cyclopropylmethyl) 5-methyl 2-amino-4-(7-cyanothieno[3,2-b]pyridin-3-yl)-6-methyl-1,4-dihydropyridine-3,5-dicarboxylate] was below 100 nM.
To `COC(=O)C1=C(N)NC(C2CC2)=C(C(=O)OC)C1c1csc2c(C#N)cccc12` (stereo not drawn) [Example D18, Dimethyl 2-amino-4-(7-cyanobenzo[b]thiophen-3-yl)-6-cyclopropyl-1,4-dihydropyridine-3,5-dicarboxylate] belongs below 100 nM; to `COC(=O)C1=C(N)NC(C)=C(C(C)=O)C1c1csc2c(C#N)cccc12` (stereo not drawn) [Example D5, Methyl 5-acetyl-2-amino-4-(7-cyanobenzo[b]thiophen-3-yl)-6-methyl-1,4-dihydropyridine-3-carboxylate], below 100 nM.
The value for `CC(=O)C1=C(C)NC(C)=C(C(=O)OC(C)(C)c2ccc(F)cc2)C1c1csc2ncccc12` (stereo not drawn) [Example C95, 2-(4-fluorophenyl)propan-2-yl 5-acetyl-2,6-dimethyl-4-(thieno[2,3-b]pyridin-3-yl)-1,4-dihydropyridine-3-carboxylate] was below 100 nM; that for `CC(=O)C1=C(C)NC(C2CC2)=C(C(=O)OC2COC2)C1c1csc2c(Br)cccc12` (stereo not drawn) [Example C81, Oxetan-3-yl 5-acetyl-4-(7-bromobenzo[b]thiophen-3-yl)-2-cyclopropyl-6-methyl-1,4-dihydropyridine-3-carboxylate] was below 100 nM.
